We go through one compound from patent US10190093B2, “Artificial oocyte activation” (The Curators of the University of Missouri, priority 2013, dated 2019).

Values joined by “and” are separate entries in the source; they are usually repeats but may differ in a detail not shown here. Equal values may be shown once. Marks after values point to notes of the source that are not given here.

In this test the test system is activated porcine oocytes. As to the kind of experiment: Treatment of chemically (THI/DTT) activated oocytes with TPEN, parthenogenetic embryo development. The test is classed as cell-based, pig. On the procedure:
Oocytes were obtained from either pre-pubertal gilt ovaries from an abattoir (Farmland Foods Inc., Milan, Mo.), or sow-derived oocytes that were purchased from Applied Reproductive Technology (Madison, Wis.). Immature oocytes from gilt ovaries were aspirated from medium size (3-6 mm) follicles by using an 18 gauge hypodermic needle attached to a 10 mL syringe. Oocytes with evenly dark cytoplasm and intact surrounding cumulus cells were then selected for maturation. Around 50 cumulus oocyte complexes were place in a well containing 500 μL of maturation medium, TCM 199 (Invitrogen, Grand Island, N.Y.) with 3.05 mM glucose, 0.91 mM sodium pyruvate, 0.57 mM cysteine, 10 ng/mL epidermal growth factor (EGF), 0.5 mg/mL luteinizing hormone (LH), 0.5 mg/mL follicle stimulating hormone (FSH), 10 ng/mL gentamicin (APP Pharm, Schaumburg, Ill.), and 0.1% polyvinyl alcohol (PVA) for 42-44 hr at 38.5° C., 5% CO2, in humidified air. […] At the end of the maturation, the surrounding cumulus cells were removed from the oocytes by vortexing for 3 min in the presence of 0.1% hyaluronidase. Oocytes with a visible polar body were selected in manipulation medium (TCM199 with 0.6 mM NaHCO3, 2.9 mM Hepes, 30 mM NaCl, 10 ng/mL gentamicin, and 3 mg/mL bovine serum albumin [BSA]; and osmolarity of 305) and then used for the experiments. Different oocyte activation methods were used for the experiments. As conventional activation methods, either electrical or chemical activation was used. For electrical activation, mature oocytes were activated in activation medium (0.3 M mannitol, 1.0 mM CaCl2, 0.1 mM MgCl2, and 0.5 mM Hepes) by two direct-current (DC) pulses (1-sec interval) at 1.2 kV/cm for 30 μsec (using BTX Electro Cell Manipulator, Harvard Apparatus, Holliston, Mass.). […] For TPEN mediated activation, mature oocytes were incubated in TL-Hepes media with various concentrations of TPEN for different durations. […] At the end of the culture, where applicable, the frequency of cleaved embryos and blastocysts, and total cell number in the blastocysts were recorded. Hoechst 33342 (1.2 mg/mL) was used to stain nuclei and the embryos were then evaluated by epi-fluorescence microscopy. Treatment of activated oocytes with TPEN was investigated for the potential to increase the efficiency of oocyte activation. […] It was hypothesized that the detrimental effect was due to excess stimuli from Ca^2+ signaling and TPEN. Therefore, lower concentrations of TPEN were introduced after activating oocytes with a conventional method. Incubating activated oocytes with a lower concentration of TPEN increased developmental potential of parthenogenetic embryos.

As for `c1ccc(CN(CCN(Cc2ccccn2)Cc2ccccn2)Cc2ccccn2)nc1` [TPEN, N,N,N′,N′-tetrakis(2-pyridylmethyl)ethane-1,2-diamine], under “THI/DTT + 5 μM TPEN, 30 min”, the “% blastocysts” value was 27.2±1.7% and 27.2^b %; the “% cleaved” value is 74.6^b %; the “Total cell number in blastocysts” value was 33.1 ± 2.6^b. Where the note is “THI/DTT + 10 μM TPEN, 10 min”, the “% blastocysts” value is on record as 21.7^b %, the “% cleaved” value is listed as 81.9^b % and the “Total cell number in blastocysts” value is 31.2 ± 2.6^b. The blastocyst formation result (chemically activated oocytes incubated with TPEN 100 μM, 45 min) is reported as “no blastocyst formation was observed”.
